According to patent publication US11160788B2, “Caspase-1 inhibition and uses thereof for prevention and treatment of neurological conditions” (priority 2016, dated 2021):
Entries after “also recorded” stand apart in the source; their conditions may differ.

Columns and labels:
[1] = system: CNS primary human neurons (HPN); assay: MTT assay in primary human neurons; assay type: cell-based; details: 25, 50, 100, or 200 μM for 72 hours
Protocol: FIG. 13: VX-765 protects CNS primary human neurons (HPN) against APP- or serum deprivation-mediated neuritic beading. (a) MTT assay with increasing dose of VX-765. (b) Fluorescent micrographs showing homogeneous distribution of EGFP in normal neurons and neuritic beading in APP-transfected neurons. (c) Percentage beading in APP-transfected or serum-deprived neurons treated 1 h before and continuously with stressor (Pre-treatment) or 48 h after stressor (post-beading treatment) with 25 or 50 μM VX-765 or with 5 μM Z-YVAD-fmk Casp1 peptide inhibitor. […] (d-e) HPN secreted or cellular Aβ42/total Aβ38+40+42 (d) (F(3,4)=12.73, p=0.0163, ANOVA, Dunnett's post-hoc compared to Serum+DMSO, *p<0.05), and (e) levels of secreted II-1β, IFN-γ, TNF-α, and II-6 from untreated (+S), serum deprived (−S), or serum-deprived human neurons treated with 25 or 50 μM VX-765.
To determine if VX-765 can protect human neurons against neurodegeneration, VX-765 was assessed in primary human fetal CNS neuron cultures. Treatment of HPN with 25, 50, 100, or 200 μM VX-765 for 72 hours was not toxic (FIG. 13a). […] HPN were pre-treated with VX-765 for 1 h before APP transfection and treatment continued thereafter. […] To assess if neuritic beading was reversible, VX-765 was administered 48 hours after APP^WT transfection or serum deprivation.

J20 mice [2] = assay: ELISA of II-1β and other cytokines, treated symptomatic J20 mice; assay type: in vivo, mouse
Description: FIG. 10: VX-765 reverses neuroinflammation in J20 mice. (a) Iba-1 positive microglia immunohistographs in the stratum lacunosum molecular area of the hippocampus and S1 of cortex (Scale bar=50 μm). (b) Stereological quantification of Iba-1^+ microglia for WT+Vehicle (n=6), J20+Vehicle (n=5), and J20+VX-765 (n=4) in the hippocampus from the pyramidal cell layer to the stratum lacunosum molecular layer (F(2,11)=58, p<0.0001) and cortex (F(2,11)=39.95, p<0.0001, ANOVA, Dunnett's post-hoc compared to J20+Vehicle, ***p<0.001). (c) Average percentage distribution of morphological microglial subtypes 1 (black (lowermost) bar), 2 (light grey bar), 3 (dark grey bar) and 4 (black (uppermost) bar). (d) II1-β pg/mg levels measured by ELISA in pre-treated J20 at 5 months of age and in treated WT and J20 8 months of age. (e) Astroglial GFAP^+ immunohistographs.
(§1) FIG. 18: ELISA measures of cytokines in vehicle-treated WT and J20 mice and VX-765-treated J20 mice. (a) Plasma levels of II-1β in mice after T3. (b) Cytokine levels in vehicle-treated WT and J20 and in VX-765-treated J20 brain hippocampi and cortex. (c) GFAP immunostaining density in vehicle-treated WT (n=6) and J20 (n=5) and in VX-765-treated J20 (n=4) brain hippocampi (F(2,12)=5.234, p=0.0232, ANOVA, Dunnett's post-hoc compared to WT+Vehicle, *p<0.05) and cortex. (d) Western blots and quantitative analyses of GFAP in vehicle-treated WT and J20 and in VX-765-treated J20 brain hippocampi and cortex.
(§2) To assess AD-like pathology, immunohistochemical analyses were performed to detect amyloid deposition (anti-AβF25276)^5,6, microglial (Iba1) activation^7, astrogliosis (GFAP), synaptophysin protein levels on coronal brain sections. Multiplex MSD ELISA was used to assess Aβ levels and 38,40, and 42 subtypes, and II-1β brain levels. RT-PCR was used to assess levels of human APP^Sw/Ind.

J20 mice [3] = assay: Open field, preventive treatment of pre-symptomatic J20 mice; assay type: in vivo, mouse
Protocol: FIG. 21: Open-field assessment to assess hyperactivity in J20 mice. Mice were treated with vehicle (WT and J20) or 50 mg/kg VX-765 (J20) at 2 months of age for 1 month (3 injections per week×4 weeks=12 injections). Hyperactivity was assessed by measuring the distance travelled (a), the number of quadrant entries (b), and the % time moving (c), while anxiety was assessed by the % time spent in periphery (d).
Studies are done on 8 (pre-symptomatic) week old J20 and littermate WT controls injected with 50 mg/Kg VX-765 or vehicle. The 8 week old mice are injected for 4 weeks (3 injections per week) and monitored for memory deficits at 16 weeks of age and every 4 weeks thereafter until the mice reach 8 months of age. VX-765 delays the onset of cognitive deficits by at least 5 months in the J20 mouse.
(§3) We directly tested whether pre-symptomatic inhibition of inflammation in a mouse genetic model of Alzheimer disease can stem the progression of memory and behavioral deficits, and Alzheimer disease-like pathology. The J20 amyloid precursor protein Swedish/Indiana mutant mouse was treated at 2 months of age for a one month period with 50 mg/Kg Caspase-1 inhibitor VX-765 (FIG. 22a).

J20 mice [4] = assay: GFAP astrogliosis, treated symptomatic J20 mice brains; assay type: in vivo, mouse; details: 50 mg/kg
Description: as §1, §2

J20 mice [5] = assay: Barnes maze, preventive treatment of pre-symptomatic J20 mice; assay type: in vivo, mouse
Description: FIG. 23: Barnes maze to assess spatial memory in J20 mice. Barnes maze tested at washout at (a-c) 12 week (6 months of age) and (d-f) 20 week (8 months of age). (a,d) Learning to find the escape hatch over 4 days in seconds. (b,e) Primary latency to reach the escape hatch and primary errors to find the hatch. In (b) One-way ANOVA (F(2,29)=5.948, p=0.0068), in (e) One-way ANOVA (F(2,22)=7.2545, p=0.0038) followed by Dunnett's pot-hoc *p<0.05, ** p<0.01. (c,f) Probe test: number of pokes for each of the 20 holes of the Barnes maze when hatch hole is blocked. T indicates target hole where hatch was accessible during training.
as §3

J20 mice [6] = assay: Synaptophysin immunostaining and synaptic gene mRNA, treated symptomatic J20 mice; assay type: in vivo, mouse; details: hippocampus, immunohistochemistry, 50 mg/kg, 8 month old
Description: FIG. 12: VX-765 reverses loss of synaptophysin immunohistological staining in J20 mice. (a) Immunohistological micrographs from pre-treated 5 month old J20 and 8 month old vehicle or VX-765 treated WT or J20 mouse hippocampus and cortex. (b) Quantitative analysis comparing synaptophysin immunostaining density between WT+Vehicle (n=4), J20+Vehicle (n=4), and J20+VX-765 (n=4) in the hippocampus (F(2,9)=7.974, p=0.0102, ANOVA, Tukey's post-hoc, * p<0.05) and cortex.
as §2

CCO[C@@H]1OC(=O)C[C@@H]1NC(=O)[C@@H]1CCCN1C(=O)[C@@H](NC(=O)c1ccc(N)c(Cl)c1)C(C)(C)C [VX-765, (S)-1-((S)-2-{[1-(4-amino-3-chloro-phenyl)-methanoyl]-amino}-3,3-dimethyl-butanoyl)-pyrrolidine-2-carboxylic acid ((2R,3S)-2-ethoxy-5-oxo-tetrahydro-furan-3-yl)-amide]
toxicity (MTT assay) [1]: not toxic
TNFα protein level in hippocampi (J20 mice [2]): returned to normal
II-1β level in hippocampus (J20 mice [2]; 50 mg/kg, after Treatment 3): reduced after VX-765 treatment
II-1β level in plasma (J20 mice [2]; after Treatment 3): No changes were seen
other inflammatory protein levels (TNF-α, KC-GRO, IFN-γ) (J20 mice [2]; brain hippocampi and cortex): No significant difference
open field hyperactivity (distance travelled, quadrant entries) (J20 mice [3]; 4 months of age (4 week washout)): normal behavior at 4 months of age; also recorded: behave as the vehicle-treated WT mice
open field hyperactivity (J20 mice [3]; 5 months of age (8 week washout) and thereafter): hyperactivity returned by 5 months of age; also recorded: lost at the 8 week washout assessment and thereafter
% time of movement (J20 mice [3]; 8 week to 20 week washout): did not alter
GFAP astrogliosis in cortex and hippocampus (J20 mice [4]; after Treatment 3): almost returned to WT levels
GFAP in cortex (J20 mice [4]; densitometry, 12 injections): reduced in VX-765-treated J20 cortex, but the data did not reach statistical significance
Barnes maze ability to distinguish the target area (J20 mice [5]; 12-week washout): better ability to distinguish the target area
Barnes maze primary errors (J20 mice [5]; 12-week washout): corrected this deficit
Barnes maze primary latency (J20 mice [5]; 12-week washout (6 months of age)): tended towards a better performance
Barnes maze identifying the target area in probe test (J20 mice [5]; 20-week washout): performed better than the Vehicle-treated J20 mice
Barnes maze learning phase (J20 mice [5]; 20-week washout): performed normally in the learning phase
Barnes maze primary latency and primary errors (J20 mice [5]; 20-week washout): did not reach statistical significance
synaptophysin levels (J20 mice [6]): increased synaptophysin levels; also recorded: significantly increased and returned to normal levels
